# Data published in PubChem BioAssay (NCI).
# Several values for one entry are separate records, joined by “and”; a condition that tells them apart may be missing. Equal entries are not always repeated.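 How tested: cells in 96-well plates exposed to compound for 48 hours at five concentrations. Here, GI50 denotes the concentration required for 50% inhibition of growth. TGI is the concentration that stops growth completely.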
# Legend:
# Test in all cases: NCI-60 cell line screen, 48 h
# 786-0 renal = test system: 786-0 renal
# A498 renal = test system: A498 renal
# A549 NSCLC = test system: A549 NSCLC
# ACHN renal = test system: ACHN renal
# BT-549 breast = test system: BT-549 breast
# CAKI-1 renal = test system: CAKI-1 renal
# CCRF-CEM leukemia = test system: CCRF-CEM leukemia
# COLO 205 colon = test system: COLO 205 colon
# DLD-1 colon = test system: DLD-1 colon
# DMS 114 small cell lung = test system: DMS 114 small cell lung
# DMS 273 small cell lung = test system: DMS 273 small cell lung
# DU-145 prostate = test system: DU-145 prostate
# EKVX NSCLC = test system: EKVX NSCLC
# HCC-2998 colon = test system: HCC-2998 colon
# HCT-116 colon = test system: HCT-116 colon
# HCT-15 colon = test system: HCT-15 colon
# HL-60(TB) leukemia = test system: HL-60(TB) leukemia
# HOP-62 NSCLC = test system: HOP-62 NSCLC
# HOP-92 NSCLC = test system: HOP-92 NSCLC
# HS 578T breast = test system: HS 578T breast
# HT29 colon = test system: HT29 colon
# IGROV1 ovarian = test system: IGROV1 ovarian
# K-562 leukemia = test system: K-562 leukemia
# KM12 colon = test system: KM12 colon
# KM20L2 colon = test system: KM20L2 colon
# LOX IMVI melanoma = test system: LOX IMVI melanoma
# LXFL 529 NSCLC = test system: LXFL 529 NSCLC
# M14 melanoma = test system: M14 melanoma
# M19-MEL melanoma = test system: M19-MEL melanoma
# MALME-3M melanoma = test system: MALME-3M melanoma
# MDA-MB-231 breast = test system: MDA-MB-231 breast
# MDA-MB-435 = test system: MDA-MB-435
# MDA-N = test system: MDA-N
# MOLT-4 leukemia = test system: MOLT-4 leukemia
# NCI-H226 lung = test system: NCI-H226 lung
# NCI-H23 lung = test system: NCI-H23 lung
# NCI-H460 lung = test system: NCI-H460 lung
# NCI-H522 lung = test system: NCI-H522 lung
# NCI/ADR-RES ovarian = test system: NCI/ADR-RES ovarian
# OVCAR-3 ovarian = test system: OVCAR-3 ovarian
# OVCAR-4 ovarian = test system: OVCAR-4 ovarian
# OVCAR-5 ovarian = test system: OVCAR-5 ovarian
# OVCAR-8 ovarian = test system: OVCAR-8 ovarian
# PC-3 prostate = test system: PC-3 prostate
# RPMI-8226 leukemia = test system: RPMI-8226 leukemia
# RXF 393 renal = test system: RXF 393 renal
# RXF-631 renal = test system: RXF-631 renal
# SF-268 CNS = test system: SF-268 CNS
# SF-295 CNS = test system: SF-295 CNS
# SF-539 CNS = test system: SF-539 CNS
# SK-MEL-2 melanoma = test system: SK-MEL-2 melanoma
# SK-MEL-28 melanoma = test system: SK-MEL-28 melanoma
# SK-MEL-5 melanoma = test system: SK-MEL-5 melanoma
# SK-OV-3 ovarian = test system: SK-OV-3 ovarian
# SN12C renal = test system: SN12C renal
# SNB-19 CNS = test system: SNB-19 CNS
# SNB-75 CNS = test system: SNB-75 CNS
# SNB-78 CNS = test system: SNB-78 CNS
# SW-620 colon = test system: SW-620 colon
# TK-10 renal = test system: TK-10 renal
# U251 CNS = test system: U251 CNS
# UACC-257 melanoma = test system: UACC-257 melanoma
# UACC-62 melanoma = test system: UACC-62 melanoma
# UO-31 renal = test system: UO-31 renal
# XF 498 CNS = test system: XF 498 CNS
# HOP-18 NSCLC = test system: HOP-18 NSCLC
structure (smiles),measurement,setting,value
CC(C)(Br)C(=O)C(Br)Br,GI50,786-0 renal,4.85 µM
same,TGI,786-0 renal,26.9 µM and 8.99 µM
same,TGI,A498 renal,> 54.4 µM
same,GI50,A549 NSCLC,11 µM
same,TGI,A549 NSCLC,37.3 µM and 41 µM
same,GI50,ACHN renal,5.34 µM
same,TGI,ACHN renal,22.5 µM and 9.58 µM
same,TGI,BT-549 breast,9.13 µM
same,GI50,CAKI-1 renal,5.21 µM
same,TGI,CAKI-1 renal,3.81 µM and 9.43 µM
same,GI50,CCRF-CEM leukemia,2.72 µM
same,GI50,COLO 205 colon,4.06 µM
same,TGI,COLO 205 colon,7.04 µM and 8.3 µM
same,TGI,DLD-1 colon,3.34 µM
same,TGI,DMS 114 small cell lung,18.1 µM
same,TGI,DMS 273 small cell lung,26.9 µM
same,TGI,DU-145 prostate,70.6 µM
same,GI50,EKVX NSCLC,5.23 µM
same,TGI,EKVX NSCLC,26.8 µM and 9.94 µM
same,TGI,HCC-2998 colon,30.8 µM
same,GI50,HCT-116 colon,5.33 µM
same,TGI,HCT-116 colon,9.91 µM and 9.61 µM
same,GI50,HCT-15 colon,4.88 µM
same,TGI,HCT-15 colon,> 21.9 µM and 9.57 µM
same,GI50,HL-60(TB) leukemia,6.35 µM
same,GI50,HOP-62 NSCLC,59.7 µM
same,TGI,HOP-62 NSCLC,> 56.5 µM and 104 µM
same,GI50,HOP-92 NSCLC,4 µM
same,TGI,HOP-92 NSCLC,3.16 µM and 8.12 µM
same,TGI,HS 578T breast,19.9 µM
same,GI50,HT29 colon,6.16 µM
same,TGI,HT29 colon,24 µM and 11.8 µM
same,GI50,IGROV1 ovarian,3.66 µM
same,TGI,IGROV1 ovarian,21.8 µM and 8.09 µM
same,GI50,K-562 leukemia,2.28 µM
same,GI50,KM12 colon,5.8 µM
same,TGI,KM12 colon,30.8 µM and 11.7 µM
same,TGI,KM20L2 colon,32.2 µM
same,GI50,LOX IMVI melanoma,3.09 µM
same,TGI,LOX IMVI melanoma,16.8 µM and 7.13 µM
same,TGI,LXFL 529 NSCLC,5.87 µM
same,GI50,M14 melanoma,5.42 µM
same,TGI,M14 melanoma,7.07 µM and 9.69 µM
same,TGI,M19-MEL melanoma,16.1 µM
same,GI50,MALME-3M melanoma,4.92 µM
same,TGI,MALME-3M melanoma,3.67 µM and 9.42 µM
same,TGI,MDA-MB-231 breast,10 µM
same,TGI,MDA-MB-435,9.98 µM
same,TGI,MDA-N,9.54 µM
same,TGI,MOLT-4 leukemia,5.1 µM
same,GI50,NCI-H226 lung,7.5 µM
same,TGI,NCI-H226 lung,30.6 µM and 21.3 µM
same,GI50,NCI-H23 lung,5.84 µM
same,TGI,NCI-H23 lung,15.7 µM and 10.5 µM
same,GI50,NCI-H460 lung,5.75 µM
same,TGI,NCI-H460 lung,34.4 µM and 11.4 µM
same,GI50,NCI-H522 lung,1.37 µM
same,TGI,NCI-H522 lung,3.18 µM and 5.16 µM
same,TGI,NCI/ADR-RES ovarian,12.6 µM
same,GI50,OVCAR-3 ovarian,5.76 µM
same,TGI,OVCAR-3 ovarian,18.6 µM and 10.6 µM
same,TGI,OVCAR-4 ovarian,10.9 µM and 9.91 µM
same,GI50,OVCAR-5 ovarian,5.26 µM
same,TGI,OVCAR-5 ovarian,30.6 µM and 9.58 µM
same,TGI,OVCAR-8 ovarian,14.9 µM and 9.13 µM
same,TGI,PC-3 prostate,11 µM
same,GI50,RPMI-8226 leukemia,2.31 µM and 1.14 µM
same,TGI,RPMI-8226 leukemia,6.29 µM and 6.22 µM
same,GI50,RXF 393 renal,5.31 µM
same,TGI,RXF 393 renal,10 µM and 9.81 µM
same,TGI,RXF-631 renal,27.1 µM
same,GI50,SF-268 CNS,7.42 µM
same,TGI,SF-268 CNS,27.1 µM and 26 µM
same,GI50,SF-295 CNS,21.1 µM
same,TGI,SF-295 CNS,32.8 µM and 63.3 µM
same,GI50,SF-539 CNS,5.42 µM
same,TGI,SF-539 CNS,> 48.2 µM and 9.97 µM
same,GI50,SK-MEL-2 melanoma,5.75 µM
same,TGI,SK-MEL-2 melanoma,28.8 µM and 10.8 µM
same,GI50,SK-MEL-28 melanoma,4.93 µM
same,TGI,SK-MEL-28 melanoma,22.1 µM and 9.12 µM
same,GI50,SK-MEL-5 melanoma,5.55 µM
same,TGI,SK-MEL-5 melanoma,25 µM and 9.92 µM
same,GI50,SK-OV-3 ovarian,32.8 µM
same,TGI,SK-OV-3 ovarian,31.3 µM and 69.8 µM
same,GI50,SN12C renal,6.13 µM
same,TGI,SN12C renal,> 43.1 µM and 11.2 µM
same,TGI,SNB-19 CNS,33.9 µM and 59.4 µM
same,GI50,SNB-75 CNS,5.04 µM
same,TGI,SNB-75 CNS,26.7 µM and 9.38 µM
same,TGI,SNB-78 CNS,13.9 µM
same,GI50,SW-620 colon,5.12 µM
same,TGI,SW-620 colon,3.59 µM and 10.4 µM
same,GI50,TK-10 renal,4.95 µM
same,TGI,TK-10 renal,23.5 µM and 9.15 µM
same,GI50,U251 CNS,9.65 µM
same,TGI,U251 CNS,> 44.7 µM and 33.3 µM
same,GI50,UACC-257 melanoma,5.21 µM
same,TGI,UACC-257 melanoma,22.4 µM and 9.43 µM
same,GI50,UACC-62 melanoma,5.85 µM
same,TGI,UACC-62 melanoma,22.5 µM and 10.2 µM
same,GI50,UO-31 renal,5.5 µM
same,TGI,UO-31 renal,31.4 µM and 9.8 µM
same,TGI,XF 498 CNS,23.8 µM
COc1ccc(/C=C2\CCC(C)(CN(C)C)C2=O)cc1OC (centres undefined),TGI,786-0 renal,> 100 µM
same,TGI,A498 renal,> 100 µM
same,TGI,A549 NSCLC,> 100 µM
same,TGI,ACHN renal,> 100 µM
same,TGI,CAKI-1 renal,> 100 µM
same,TGI,CCRF-CEM leukemia,> 100 µM
same,TGI,COLO 205 colon,> 100 µM
same,TGI,DLD-1 colon,> 100 µM
same,TGI,DMS 114 small cell lung,> 100 µM
same,TGI,DMS 273 small cell lung,> 100 µM
same,TGI,EKVX NSCLC,> 100 µM
same,TGI,HCC-2998 colon,> 100 µM
same,TGI,HCT-116 colon,> 100 µM
same,TGI,HCT-15 colon,> 100 µM
same,TGI,HOP-18 NSCLC,> 100 µM
same,TGI,HOP-62 NSCLC,> 100 µM
same,TGI,HOP-92 NSCLC,> 100 µM
same,TGI,HT29 colon,> 100 µM
same,TGI,IGROV1 ovarian,> 100 µM
same,TGI,K-562 leukemia,> 100 µM
same,TGI,KM12 colon,> 100 µM
same,TGI,KM20L2 colon,> 100 µM
same,TGI,LOX IMVI melanoma,> 100 µM
same,TGI,LXFL 529 NSCLC,> 100 µM
same,TGI,M14 melanoma,> 100 µM
same,TGI,M19-MEL melanoma,> 100 µM
same,TGI,MALME-3M melanoma,> 100 µM
same,TGI,MOLT-4 leukemia,> 100 µM
same,TGI,NCI-H226 lung,> 100 µM
same,TGI,NCI-H23 lung,> 100 µM
same,TGI,NCI-H460 lung,> 100 µM
same,TGI,NCI-H522 lung,> 100 µM
same,TGI,OVCAR-3 ovarian,> 100 µM
same,TGI,OVCAR-4 ovarian,> 100 µM
same,TGI,OVCAR-5 ovarian,> 100 µM
same,TGI,OVCAR-8 ovarian,> 100 µM
same,TGI,RPMI-8226 leukemia,> 100 µM
same,TGI,RXF 393 renal,> 100 µM
same,TGI,RXF-631 renal,> 100 µM
same,TGI,SF-268 CNS,> 100 µM
same,TGI,SF-295 CNS,> 100 µM
same,TGI,SF-539 CNS,> 100 µM
same,TGI,SK-MEL-2 melanoma,> 100 µM
same,TGI,SK-MEL-28 melanoma,> 100 µM
same,TGI,SK-MEL-5 melanoma,> 100 µM
same,TGI,SN12C renal,> 100 µM
same,TGI,SNB-19 CNS,> 100 µM
same,TGI,SNB-75 CNS,> 100 µM
same,TGI,SNB-78 CNS,> 100 µM
same,TGI,SW-620 colon,> 100 µM
same,TGI,TK-10 renal,> 100 µM
same,TGI,U251 CNS,> 100 µM
same,TGI,UACC-257 melanoma,> 100 µM
same,TGI,UACC-62 melanoma,> 100 µM
same,TGI,UO-31 renal,> 100 µM
